For one assay, the system named is A431 cells. The experiment in a line: DMR primary profiles of known GPCR agonists in A431 cells (receptor panning, cluster analysis). The class given is cell-based, human. Particulars: each agonist at 10 micromolar, max-min of 40 picometer cutoff. As for the experimental part:
(§1) Cells were typically grown using ˜1 to 2×10^4 cells per well at passage 3 to 15 suspended in 50 μl of the corresponding culture medium in the biosensor microplate, and were cultured at 37° C. under air/5% CO2 for ˜1 day. Except for A431 cells which underwent one day (at least 14 hours) culture followed by one day (at least 14 hours) starvation in serum free medium, all other cells were directly assayed without starvation. The confluency for all cells at the time of assays was ˜95% to 100%.
An Epic® beta version wavelength interrogation system (Corning Inc., Corning, N.Y.) was used for whole cell sensing. This system consists of a temperature-control unit, an optical detection unit, and an on-board liquid handling unit with robotics. The detection unit is centered on integrated fiber optics, and enables kinetic measures of cellular responses with a time interval of ˜15 sec.
(§2) For biosensor cellular assays, molecule solutions were made by diluting the stored concentrated solutions with the HBSS (1× Hanks balanced salt solution, plus 20 mM Hepes, pH 7.1), and transferred into a 384well polypropylene molecule storage plate to prepare a molecule source plate. Both molecule and marker source plates were made separately when a two-step assay was performed. In parallel, the cells were washed twice with the HBSS and maintained in 30 μl of the HBSS to prepare a cell assay plate. Both the cell assay plate and the molecule and marker source plate(s) were then incubated in the hotel of the reader system. After ˜1 hr of incubation the baseline wavelengths of all biosensors in the cell assay microplate were recorded and normalized to zero. Afterwards, a 2 to 10 minute continuous recording was carried out to establish a baseline, and to ensure that the cells reached a steady state. Cellular responses were then triggered by pipetting 10 μl of the marker solutions into the cell assay plate using the on-board liquid handler.
All studies were carried out at a controlled temperature (28° C.). At least two independent sets of experiments, each with at least three replicates, were performed. […] A typical DMR signal of cells, as measured using Epic system, is a real time kinetic response which consists a baseline pre-stimulation (often normalized to zero), and a cellular response post stimulation.
To pan endogenous G protein-coupled receptors (GPCRs) that are functional in label-free biosensor cellular assays, a library of known GPCR agonists was made. A431 cells were grown to monolayer on the Epic® 384well biosensor cell culture compatible microplates and subject to overnight starvation. After replacing the cell medium with 1×HBSS buffer and reaching equilibrium within the Epic® system, the cells were stimulated with known GPCR agonists, each at 10 micromolar. The known adenylate cyclase activator forskolin was also included as a positive control for the cAMP-PKA pathway.
Pattern recognition and pattern matching can be used to visualize their relations. However, when the numbers of molecule biosensor primary profiles increase dramatically, it becomes more difficult to use conventional pattern recognition methods, such as supervised learning, to study the relations of the molecule primary indices. Clustering analysis has been widely and successfully used in gene expression and protein network analysis which often deals with large datasets. Thus, clustering analysis and its parameters were identified herein to categorize the molecule primary indices. Both Hierarchical and k-Means clustering methods were examined. […] Here a max-min of 40 picometer was used as a cutoff to filter the original data. This heat map was generated using the real responses of each GPCR agonist at a 1-min time interval post stimulation.

The subject of assay [1] is 15 marker/4 cell line panel (A549, A431, HT29, HepG2 cells). The experiment in a line: Biosensor modulation indices against a 15 marker/4 cell line panel, Hierarchical Euclidean cluster analysis. The conditions noted are these: 15 markers at EC100 in A549, A431, HT29, HepG2 cells; library of ~2000 compounds. Type of assay: cell-based. The protocol: as §1, §2
To study the influence of molecules on a marker-induced response, a second stimulation with the marker at a fixed dose (typically at EC80 or EC 100) was applied. The resonant wavelengths of all biosensors in the microplate were normalized again to establish a second baseline, right before the second stimulation. The two stimulations were usually separated by ˜1 hr.
To further explore the potential of cluster analysis for label-free integrative pharmacology, a library of ˜2000 compounds were subject to label-free integrative pharmacology analysis against a 15 marker/4 cell line panel. The cell/marker panel consists of the A549 cell (the mitochondria KATP opener pinacidil, the TLR3 agonist poly(I:C), the protein kinase C activator PMA, the adenylate cyclase activator forskolin, the PAR2 agonist SLIGKV, and the histamine H1 receptor agonist histamine), A431 cells (the β2AR agonist epinephrine, the EGFR agonist EGF, the GPR109A agonist nicotinic acid, and the histamine H1 receptor agonist histamine), HT29 cells (the EGFR/HER2 agonist EGF, the neurotensin receptor NTS1/NTS3 agonist neurotensin, the IGF1 receptor IGF1, and the hERG activator mallotoxin), and the HepG2 cell (the TL9 agonist ODN2006). All molecules in the library were screened in four cell lines to produce a library of biosensor primary indices. In addition, all molecules in the library were also screened in the four cell lines against each respective marker at EC100 to produce a library of biosensor modulation indices. The modulation indices were generated by normalizing the marker DMR signal in the presence of a molecule to the marker DMR in the absence of a molecule. For each marker, one or two specific DMR events were used for normalization. For A549 cells, it is pinacidil (the N-DMR at 30 min; pinacidil), Poly(I:C) (the P-DMR at 50 min, poly(I:C)), PMA (the P-DMR at 50 min, PMA), SLIGKV (the P-DMR at 20 min, SLIGKV), forskolin (the P-DMR at 50 min, Forskolin), Histamine (the P-DMR at 10 min, His1; the P-DMR at 30 min, His2) (the bolded name was indicated in FIG. 6, the same is for the below). For A431 cells, it is epinephrine (the P-DMR at 50 min, Epi), nicotinic acid (the N-DMR at 3 min, NA), EGF (the P-DMR at 5 min, EGF1; the N-DMR at 40 min, EGF2), and histamine (the P-DMR at 3 min, His3).

Another assay deals with T1, β2-AR (Homo sapiens, UniProt P07550).
T1 construct: All of these receptors were endogenously expressed in A431 cells, as confirmed by quantitative RT-PCR; endogenous in cells; host or cells: quiescent (serum-starved) A431 cells
Nature of the assay: DMR assays of a panel of β2-AR ligands in quiescent A431 cells, multi-parameter and cluster analysis. The class given is cell-based. The conditions noted are these: for heat map classification of β2-AR agonist pharmacology based on DMR parameters: DMR parameters normalized to the epinephrine response; for saturating concentration for the DMR signal: FIG. 7. The protocol: as §1, §2
Label-free receptor assays allow a greater array of changes in the receptor to be detected. […] The heat map was generated using the Euclidean hierarchical cluster analysis, after all DMR parameters were normalized to the epinephrine response.

This is an account of results in patent US20110231103A1, “METHODS FOR DETERMINING MOLECULAR PHARMACOLOGY USING LABEL-FREE INTEGRATIVE PHARMACOLOGY” (priority 2010, published 2011).

T1 sequence (P07550 whole entry): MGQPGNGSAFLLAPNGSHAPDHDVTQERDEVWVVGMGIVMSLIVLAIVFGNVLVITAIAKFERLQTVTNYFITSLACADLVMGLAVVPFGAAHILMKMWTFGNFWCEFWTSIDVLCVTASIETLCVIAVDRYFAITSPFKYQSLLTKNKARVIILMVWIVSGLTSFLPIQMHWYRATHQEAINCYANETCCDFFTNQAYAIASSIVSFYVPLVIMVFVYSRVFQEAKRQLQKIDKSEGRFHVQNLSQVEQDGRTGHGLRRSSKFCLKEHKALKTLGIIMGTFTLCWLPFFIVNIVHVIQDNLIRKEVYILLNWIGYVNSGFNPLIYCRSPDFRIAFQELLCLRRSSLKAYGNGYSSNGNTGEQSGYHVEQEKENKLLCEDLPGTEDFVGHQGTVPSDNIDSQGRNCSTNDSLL

In the case of `Nc1ncnc2c1ncn2[C@@H]1O[C@H](COP(=O)(O)OP(=O)(O)OP(=O)(O)O)[C@@H](O)[C@H]1O` [ATP], in the assay on A431 cells, the “cluster of the agonist-induced primary DMR signal (two dimensional Hierarchical clustering, heat map)” value is “belong to the same cluster”. Regarding `OC[C@H]1O[C@@H](n2cnc3c(NC4CCCC4)nc(Cl)nc32)[C@H](O)[C@@H]1O` [CCPA], the “cluster of the agonist-induced primary DMR signal (two dimensional Hierarchical clustering, heat map)” value in the assay with A431 cells was “belong to the same cluster”. For the compound `CCNC(=O)[C@H]1O[C@@H](n2cnc3c(N)nc(NCCc4ccc(CCC(=O)O)cc4)nc32)[C@H](O)[C@@H]1O` [CGS21680], in the assay on A431 cells, the “cluster of the agonist-induced primary DMR signal (two dimensional Hierarchical clustering, heat map)” value is recorded as “belong to the same cluster”. `CN(C)CCCN1c2ccccc2Sc2ccc(Cl)cc21` [Chlorpromazine]: the “node cluster by biosensor modulation index (similarity to known anti-histamines)” value in assay [1] is on record as “specific node cluster that consists of 8 compounds”. On to `CNC(=O)[C@H]1O[C@@H](n2cnc3c(NCc4cccc(I)c4)ncnc32)[C@H](O)[C@@H]1O` [IB-MECA], for which, in the assay on A431 cells, the “cluster of the agonist-induced primary DMR signal (two dimensional Hierarchical clustering, heat map)” value is “belong to the same cluster”. As for `O=c1cc(N2CCNCC2)oc2c(-c3ccccc3)cccc12` [LY303511], the “node cluster by biosensor modulation index (similarity to known anti-histamines)” value in assay [1] was “can also be a histamine H1R or a H1R pathway antagonist”. In the case of `O=c1ccn([C@@H]2O[C@H](COP(=O)(O)OP(=O)(O)OP(=O)(O)O)[C@@H](O)[C@H]2O)c(=O)[nH]1` [UTP], the “cluster of the agonist-induced primary DMR signal (two dimensional Hierarchical clustering, heat map)” value in the assay on A431 cells was “belong to the same cluster”. For `Nc1ncnc2c1ncn2[C@@H]1O[C@H](CO)[C@@H](O)[C@H]1O` [adenosine], in the assay on A431 cells, the “cluster of the agonist-induced primary DMR signal (two dimensional Hierarchical clustering, heat map)” value was “belong to the same cluster”. On to `Oc1ccccc1O` [catechol], for which, on β2-AR, the “amplitudes of the DMR signal” value is recorded as “smaller amplitudes”; the “kinetics for the P-DMR event” value is reported as “faster kinetics”; the “transition time of the DMR signal” value was “slightly slower transition time”; the “heat map classification of β2-AR agonist pharmacology based on DMR parameters” value was “between the second and third group”. Moreover, on β2-AR, the “saturating concentration for the DMR signal” value (“saturating concentration” for short) is 500 µM. For `NCCc1ccc(O)c(O)c1` [dopamine], at β2-AR, the “heat map classification of β2-AR agonist pharmacology based on DMR parameters” value is “partial agonists” and the “saturating concentration” value is 32 µM. With `CNC[C@H](O)c1ccc(O)c(O)c1` [epinephrine], at β2-AR, the “amplitudes of the DMR signal” value is given as “maximum amplitudes”; the “kinetics for the P-DMR event” value is reported as “slow kinetics”; the “transition time of the DMR signal” value is on record as “fast transition time”; the “heat map classification of β2-AR agonist pharmacology based on DMR parameters” value was “full agonists and strong partial agonists”. The “saturating concentration” value on β2-AR is 0.008 µM. As to `Fc1ccc(C(c2ccc(F)cc2)N2CCN(C/C=C/c3ccccc3)CC2)cc1` [flunarizine], the “node cluster by biosensor modulation index (similarity to known anti-histamines)” value in assay [1] is “specific node cluster that consists of 8 compounds”.

For the compound `CNCC(O)c1ccccc1` (centres unmarked) [halostachine], at β2-AR, the “amplitudes of the DMR signal” value was “smaller amplitudes”, the “kinetics for the P-DMR event” value is on record as “faster kinetics”, the “transition time of the DMR signal” value is reported as “slightly slower transition time” and the “heat map classification of β2-AR agonist pharmacology based on DMR parameters” value was “partial agonists”. Turning to `CN1CCC(=C2c3ccccc3CC(=O)c3sccc32)CC1` [ketotifen], in assay [1], the “node cluster by biosensor modulation index (similarity to known anti-histamines)” value is given as “specific node cluster that consists of 8 compounds”.

Consider `C[C@@H]1CN([C@H]2CC[C@](C#N)(c3ccc(F)cc3)CC2)CC[C@]1(C(=O)O)c1ccccc1` [levocabastine], for which, in assay [1], the “node cluster by biosensor modulation index (similarity to known anti-histamines)” value was “specific node cluster that consists of 8 compounds”.

As for `NC[C@H](O)c1ccc(O)c(O)c1` [norepinephrine], at β2-AR, the “heat map classification of β2-AR agonist pharmacology based on DMR parameters” value was “full agonists and strong partial agonists”; the “saturating concentration” value worked out at 0.1 µM. As for `CC(C)NCC(O)COc1cccc2[nH]ccc12` (centres unmarked) [pindolol], at β2-AR, the “heat map classification of β2-AR agonist pharmacology based on DMR parameters” value is “beta-blockers with weak partial agonism activity”. For `Cc1nc2n(c(=O)c1CCN1CCC(c3noc4cc(F)ccc34)CC1)CCCC2` [risperidone], in assay [1], the “node cluster by biosensor modulation index (similarity to known anti-histamines)” value is recorded as “specific node cluster that consists of 8 compounds”. `O=C(NCCNCC(O)COc1ccc(O)cc1)N1CCOCC1` (centres unmarked) [xamoterol]: at β2-AR, the “heat map classification of β2-AR agonist pharmacology based on DMR parameters” value is “between the second and third group”.
